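Tested at 5 concentrations; 48 h exposure; 96-well plates; endpoints linearly interpolated, else capped at highest concentration. The concentration for full growth arrest is given as TGI.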
How the values were obtained:
Assay in all cases: inhibition of tumour cell growth, NCI panel, 48 h
MDA-MB-231 breast = test system: MDA-MB-231 breast
K-562 leukemia = test system: K-562 leukemia
SNB-19 CNS = test system: SNB-19 CNS
LOX IMVI melanoma = test system: LOX IMVI melanoma
SR leukemia = test system: SR leukemia
SW-620 colon = test system: SW-620 colon
SK-MEL-2 melanoma = test system: SK-MEL-2 melanoma
BT-549 breast = test system: BT-549 breast
SK-MEL-28 melanoma = test system: SK-MEL-28 melanoma
HOP-92 NSCLC = test system: HOP-92 NSCLC
M14 melanoma = test system: M14 melanoma
UACC-257 melanoma = test system: UACC-257 melanoma
MDA-N = test system: MDA-N
OVCAR-5 ovarian = test system: OVCAR-5 ovarian
A549 NSCLC = test system: A549 NSCLC
NCI/ADR-RES ovarian = test system: NCI/ADR-RES ovarian
SF-539 CNS = test system: SF-539 CNS
HT29 colon = test system: HT29 colon
ACHN renal = test system: ACHN renal
OVCAR-3 ovarian = test system: OVCAR-3 ovarian
EKVX NSCLC = test system: EKVX NSCLC
A498 renal = test system: A498 renal
NCI-H522 lung = test system: NCI-H522 lung
NCI-H23 lung = test system: NCI-H23 lung
DU-145 prostate = test system: DU-145 prostate
HOP-62 NSCLC = test system: HOP-62 NSCLC
CCRF-CEM leukemia = test system: CCRF-CEM leukemia
HCC-2998 colon = test system: HCC-2998 colon
KM12 colon = test system: KM12 colon
TK-10 renal = test system: TK-10 renal
786-0 renal = test system: 786-0 renal
MALME-3M melanoma = test system: MALME-3M melanoma
U251 CNS = test system: U251 CNS
NCI-H226 lung = test system: NCI-H226 lung
RXF 393 renal = test system: RXF 393 renal
HCT-116 colon = test system: HCT-116 colon
UACC-62 melanoma = test system: UACC-62 melanoma
SNB-75 CNS = test system: SNB-75 CNS
RPMI-8226 leukemia = test system: RPMI-8226 leukemia
HCT-15 colon = test system: HCT-15 colon
SF-268 CNS = test system: SF-268 CNS
OVCAR-4 ovarian = test system: OVCAR-4 ovarian
NCI-H460 lung = test system: NCI-H460 lung
SK-OV-3 ovarian = test system: SK-OV-3 ovarian
UO-31 renal = test system: UO-31 renal
MDA-MB-435 = test system: MDA-MB-435
OVCAR-8 ovarian = test system: OVCAR-8 ovarian
MOLT-4 leukemia = test system: MOLT-4 leukemia
PC-3 prostate = test system: PC-3 prostate
CAKI-1 renal = test system: CAKI-1 renal
COLO 205 colon = test system: COLO 205 colon
IGROV1 ovarian = test system: IGROV1 ovarian
MCF7 breast = test system: MCF7 breast
T-47D breast = test system: T-47D breast
SF-295 CNS = test system: SF-295 CNS
SK-MEL-5 melanoma = test system: SK-MEL-5 melanoma
SN12C renal = test system: SN12C renal
HS 578T breast = test system: HS 578T breast
HL-60(TB) leukemia = test system: HL-60(TB) leukemia
KM20L2 colon = test system: KM20L2 colon
XF 498 CNS = test system: XF 498 CNS
M19-MEL melanoma = test system: M19-MEL melanoma
LXFL 529 NSCLC = test system: LXFL 529 NSCLC
DMS 114 small cell lung = test system: DMS 114 small cell lung
DLD-1 colon = test system: DLD-1 colon

COC(=O)c1cc(C#N)[nH]c1-c1cc(Br)cs1
TGI (MDA-MB-231 breast): 51.7 µM | TGI (K-562 leukemia): > 79.9 µM | TGI (SNB-19 CNS): 37.3 µM | TGI (LOX IMVI melanoma): 25.5 µM | TGI (SR leukemia): > 66.3 µM | TGI (SW-620 colon): 40.2 µM | TGI (SK-MEL-2 melanoma): 35.2 µM | TGI (BT-549 breast): 35.1 µM | TGI (SK-MEL-28 melanoma): 36.5 µM | TGI (HOP-92 NSCLC): 19.1 µM | TGI (M14 melanoma): 27.7 µM | TGI (UACC-257 melanoma): 28.9 µM | TGI (MDA-N): 29.4 µM | TGI (OVCAR-5 ovarian): 55.7 µM | TGI (A549 NSCLC): 31.7 µM | TGI (NCI/ADR-RES ovarian): 39.3 µM | TGI (SF-539 CNS): 33.3 µM | TGI (HT29 colon): 31.7 µM | TGI (ACHN renal): 61.9 µM | TGI (OVCAR-3 ovarian): 21.9 µM | TGI (EKVX NSCLC): 47.6 µM | TGI (A498 renal): 18.4 µM | TGI (NCI-H522 lung): 13.3 µM | TGI (NCI-H23 lung): 25.7 µM | TGI (DU-145 prostate): 43.1 µM | TGI (HOP-62 NSCLC): 29.9 µM | TGI (CCRF-CEM leukemia): 39.3 µM | TGI (HCC-2998 colon): > 57.5 µM | TGI (KM12 colon): > 53.4 µM | TGI (TK-10 renal): 57.1 µM | TGI (786-0 renal): 48.7 µM | TGI (MALME-3M melanoma): 34.9 µM | TGI (U251 CNS): 32.1 µM | TGI (NCI-H226 lung): 49.4 µM | TGI (RXF 393 renal): 23 µM | TGI (HCT-116 colon): 28.3 µM | TGI (UACC-62 melanoma): 38.4 µM | TGI (SNB-75 CNS): 22.6 µM | TGI (RPMI-8226 leukemia): 51.2 µM | TGI (HCT-15 colon): 33.2 µM | TGI (SF-268 CNS): 51 µM | TGI (OVCAR-4 ovarian): > 57.7 µM | TGI (NCI-H460 lung): 54.5 µM | TGI (SK-OV-3 ovarian): 46 µM | TGI (UO-31 renal): 29.5 µM | TGI (MDA-MB-435): 31.5 µM | TGI (OVCAR-8 ovarian): 43.7 µM | TGI (MOLT-4 leukemia): 50.8 µM | TGI (PC-3 prostate): 40.9 µM | TGI (CAKI-1 renal): 62.7 µM | TGI (COLO 205 colon): 35.6 µM | TGI (IGROV1 ovarian): 35.3 µM | TGI (MCF7 breast): 33.7 µM | TGI (T-47D breast): 12.8 µM | TGI (SF-295 CNS): 24.7 µM | TGI (SK-MEL-5 melanoma): 21.2 µM | TGI (SN12C renal): 32.3 µM | TGI (HS 578T breast): 45.4 µM | TGI (HL-60(TB) leukemia): 38.5 µM

CSc1n[nH]c(N)c1C(=O)Nc1ccccc1
TGI (MDA-MB-231 breast): > 100 µM | TGI (K-562 leukemia): > 100 µM | TGI (SNB-19 CNS): > 100 µM | TGI (LOX IMVI melanoma): > 100 µM | TGI (SR leukemia): > 100 µM | TGI (SW-620 colon): > 100 µM | TGI (SK-MEL-2 melanoma): > 100 µM | TGI (BT-549 breast): > 100 µM | TGI (SK-MEL-28 melanoma): > 100 µM | TGI (M14 melanoma): > 100 µM | TGI (UACC-257 melanoma): > 100 µM | TGI (MDA-N): > 100 µM | TGI (OVCAR-5 ovarian): > 100 µM | TGI (A549 NSCLC): > 100 µM | TGI (NCI/ADR-RES ovarian): > 100 µM | TGI (SF-539 CNS): > 100 µM | TGI (HT29 colon): > 100 µM | TGI (OVCAR-3 ovarian): > 100 µM | TGI (EKVX NSCLC): > 100 µM | TGI (A498 renal): > 100 µM | TGI (NCI-H522 lung): > 100 µM | TGI (NCI-H23 lung): > 100 µM | TGI (DU-145 prostate): > 100 µM | TGI (CCRF-CEM leukemia): > 100 µM | TGI (HCC-2998 colon): > 100 µM | TGI (KM12 colon): > 100 µM | TGI (TK-10 renal): > 100 µM | TGI (786-0 renal): > 100 µM | TGI (MALME-3M melanoma): > 100 µM | TGI (U251 CNS): > 100 µM | TGI (NCI-H226 lung): > 100 µM | TGI (RXF 393 renal): > 100 µM | TGI (HCT-116 colon): > 100 µM | TGI (UACC-62 melanoma): > 100 µM | TGI (SNB-75 CNS): > 100 µM | TGI (RPMI-8226 leukemia): > 100 µM | TGI (HCT-15 colon): > 100 µM | TGI (SF-268 CNS): > 100 µM | TGI (OVCAR-4 ovarian): > 100 µM | TGI (NCI-H460 lung): > 100 µM | TGI (SK-OV-3 ovarian): > 100 µM | TGI (UO-31 renal): > 100 µM | TGI (MDA-MB-435): > 100 µM | TGI (OVCAR-8 ovarian): > 100 µM | TGI (MOLT-4 leukemia): > 100 µM | TGI (PC-3 prostate): > 100 µM | TGI (CAKI-1 renal): > 100 µM | TGI (COLO 205 colon): > 100 µM | TGI (IGROV1 ovarian): > 100 µM | TGI (MCF7 breast): > 100 µM | TGI (T-47D breast): > 100 µM | TGI (SK-MEL-5 melanoma): > 100 µM | TGI (SN12C renal): > 100 µM | TGI (HS 578T breast): > 100 µM | TGI (HL-60(TB) leukemia): > 100 µM

NC(=S)NN/C=C(\C=Nc1ccccc1)[N+](=O)[O-]
TGI (K-562 leukemia): > 100 µM | TGI (SNB-19 CNS): > 100 µM | TGI (LOX IMVI melanoma): > 100 µM | TGI (SW-620 colon): > 100 µM | TGI (SK-MEL-2 melanoma): > 100 µM | TGI (KM20L2 colon): > 100 µM | TGI (SK-MEL-28 melanoma): > 100 µM | TGI (HOP-92 NSCLC): > 100 µM | TGI (M14 melanoma): > 100 µM | TGI (UACC-257 melanoma): > 100 µM | TGI (OVCAR-5 ovarian): > 100 µM | TGI (A549 NSCLC): > 100 µM | TGI (SF-539 CNS): > 100 µM | TGI (XF 498 CNS): > 100 µM | TGI (HT29 colon): > 100 µM | TGI (ACHN renal): > 100 µM | TGI (OVCAR-3 ovarian): > 100 µM | TGI (M19-MEL melanoma): > 100 µM | TGI (EKVX NSCLC): > 100 µM | TGI (NCI-H522 lung): > 100 µM | TGI (NCI-H23 lung): > 100 µM | TGI (HOP-62 NSCLC): > 100 µM | TGI (CCRF-CEM leukemia): > 100 µM | TGI (TK-10 renal): > 100 µM | TGI (786-0 renal): > 100 µM | TGI (MALME-3M melanoma): > 100 µM | TGI (NCI-H226 lung): > 100 µM | TGI (RXF 393 renal): > 100 µM | TGI (LXFL 529 NSCLC): > 100 µM | TGI (HCT-116 colon): > 100 µM | TGI (UACC-62 melanoma): > 100 µM | TGI (SNB-75 CNS): > 100 µM | TGI (RPMI-8226 leukemia): > 100 µM | TGI (HCT-15 colon): > 100 µM | TGI (SF-268 CNS): > 100 µM | TGI (OVCAR-4 ovarian): > 100 µM | TGI (DMS 114 small cell lung): > 100 µM | TGI (SK-OV-3 ovarian): > 100 µM | TGI (OVCAR-8 ovarian): > 100 µM | TGI (CAKI-1 renal): > 100 µM | TGI (COLO 205 colon): > 100 µM | TGI (IGROV1 ovarian): > 100 µM | TGI (DLD-1 colon): > 100 µM | TGI (SF-295 CNS): > 100 µM | TGI (SN12C renal): > 100 µM | TGI (HL-60(TB) leukemia): > 100 µM

— PubChem BioAssay (NCI)
